Where two headings read alike, the source gives them in different places. Numbered stars: 1 amine (or outer) side, 2 acyl side, 3 side chain; on linkers, the order of the positions; unused ones are H or OH. Square brackets hold non-standard residues; d marks the D form. Peptide text beside a SMILES is read from it. * marks the point of attachment. Pteroyl = Nc1nc2ncc(CNc3ccc(C(=O)*)cc3)nc2c(=O)[nH]1; γGlu = O=C(O)[C@H](CCC(=O)[*:2])N[*:1]; Dab = NCC[C@H](N)C(=O)O

Test [1] has as its system pancreatic cancer tissue of mice carrying human pancreatic cancer organoids derived from S2-013 pancreatic cancer cells. To be noted: for delivery of SNORA22 siRNA to pancreatic cancer tissue: 5 μg siRNA tail vein, 24 hours. The method, then:
Human pancreatic cancer organoids were prepared using 52-013 pancreatic cancer cells by modifying the method described in JP Patent Application Publication No. 2018-110575 A1.
Specifically, the S2-013 pancreatic cancer cells (20×10^4 cells), human mesenchymal stem cells MSC (LONZA, 40×10^4 cells), and human umbilical vein endothelial cells HUVEC (LONZA, 14×10^4 cells) were added to DMEM/Matrigel mixed solution in a 48-well plate (Thermo Fisher Scientific Inc.) and incubated in a CO2 incubator at 37° C. for 30 minutes.
Then, 300 μL/well of DMEM/EGM mixed solution was added thereto and incubated again at 37° C. for 24 hours to prepare one pancreatic cancer organoid in each well.
Subsequently, the skin on the flank of nude mice (6-week-old BALB/cSlc-nu/nu (Pathogen-free female athymic nude mice), Japan SLC, Inc.) was incised, and the pancreatic cancer organoids obtained above were subcutaneously transplanted (2 mice in each group).
Six weeks after transplantation, the chemically-modified SNORA22 siRNA (SEQ ID NOs: 27 and 28, 5 μg) labeled with Alexa-594 was administered with 1, 2, or 3 equivalents of the cationic oligopeptide (Dab8) or the folic acid-cationic oligopeptide complex (Fol-Dab8A or Fol-Dab8B) by tail vein injection. After 24 hours, images were taken with an in vivo imager.
Measuring instrument: Spectrum In Vivo Imaging System (PerkinElmer, Inc., Waltham, Mass.)
Measurement condition: kexc 640 nm, kemi 680 nm
In the same manner as in Example 11, the delivery of chemically-modified SNORA18 siRNA (SEQ ID NOs: 21 and 22) to pancreatic cancer-carrying mice when administered with the folic acid-cationic oligopeptide complex (Fol-Dab8A or Fol-Dab8B) was imaged using an in vivo imager.
In the same manner as in Examples 11 and 13, the delivery of chemically-modified WASF2 siRNA (SEQ ID NOs: 25 and 26) to pancreatic cancer-carrying mice when administered with the folic acid-cationic oligopeptide complex (Fol-Dab8A or Fol-Dab8B) was imaged using an in vivo imager.

Test [2] deals with S2-013 pancreatic cancer cells. To be noted: for incorporation efficiency of siRNA: among 1 to 3 equivalents; for incorporation efficiency of siRNA compared with Dab8: best equivalent versus Dab8 of 1 to 3 equivalents. The method, then:
Since it is difficult to distinguish between intracellularly incorporated labels and non-incorporated labels by flow cytometry, the uptake of siRNA into pancreatic cancer cells was observed using a confocal microscope.
The pancreatic cancer cell line 52-013 (Cell Resource Center for Biomedical Research, Institute of Development, Aging and Cancer, Tohoku University, ID: TKG 0709) was seeded in a 4-well chamber slide (Thermo Fisher Scientific Inc.) at a cell density of 2×10^4 cells/well, and scrambled control siRNA (SEQ ID NOs: 3 and 4) labeled with Alexa647 (Thermo Fisher Scientific Inc.), and Dab8, Fol-Dab8A, or Fol-Dab8B in 1 to 3 equivalents to the siRNA were added and then cultured for 48 hours. The concentration of siRNA used was 8.28 μg/mL in 25 μL, and Dab8, Fol-Dab8A, and Fol-Dab8B were diluted 25-fold from the stock solution (Dab8: 119.3 μg/mL, Fol-Dab8A and Fol-Dab8B: 141.2 μg/mL) and used. The amounts corresponding to 1, 2, and 3 equivalents relative to siRNA are 3.9 μL, 7.8 μL, and 11.7 μL, respectively.
The next day, the cells were fixed with 4% paraformaldehyde, sealed with a DAPI-containing encapsulant, and then observed with an all-in-one fluorescence microscope (BZ-X800, Keyence Corporation).
To quantify the uptake, the hybrid cell count function of the Keyence analysis software BZ-X800 Analyzer was used to count cells into which siRNA was taken up in the presence of Dab8, Fol-Dab8A, and Fol-Dab8B. Determination was made by measuring cells with dark staining of at least ⅓ of the cell nuclei and cells with dark clumps in the periphery of the cell nuclei.

A further test concerns S2-013 cells. Briefly: Matrigel invasion assay. It counts as cell-based, human. Conditions: versus scrambled control siRNA and siRNA alone. The method, then: Each of the scrambled control siRNA, SNORA18 siRNA, NUP85 siRNA, WASF2 siRNA, and SNORA22 siRNA (all used in Example 5) with the folic acid-cationic oligopeptide complex added was added to the culture solution of S2-013 cells, and Matrigel invasion assay was performed after 48 hours.
4.0×10^4 cells were suspended in a serum-free medium and seeded in the upper chamber of a Matrigel Invasion Chamber (24-well plate, pore size: 8 μm, manufactured by Becton, Dickinson, and Company). A solvent containing 5% fetal bovine serum was added to the lower chamber. After the cells were incubated in the upper chamber for 20 hours, three independent areas were observed under a microscope, and the cells invading the lower chamber were counted. The same experiment was repeated three times, and the cell invasion ability of 52-013 cells into which each siRNA was taken up was compared.
The “*” denotes a significant difference at P<0.05 as compared to the control in the t-test.
Each of the scrambled control siRNA (SEQ ID NOs: 3 and 4), SNORA18 siRNA (SEQ ID NOs: 21 and 22), NUP85 siRNA (SEQ ID NOs: 23 and 24), WASF2 siRNA (SEQ ID NOs: 25 and 26), and SNORA22 siRNA (SEQ ID NOs: 27 and 28) was added with 2 equivalents of Dab8, Fol-Dab8A, or Fol-Dab8B to the culture solution of pancreatic cancer cell line S2-013 in culture. As a control, each of the control siRNA, SNORA18 siRNA, NUP85 siRNA, WASF2 siRNA, and SNORA22 siRNA was added alone to the culture solution of the S2-013 cells.
After 48 hours of culture, the Matrigel invasion assay was performed. In the Matrigel invasion assay, the number of cells that have migrated from the upper chamber to the lower chamber is shown. The “*” denotes a significant difference at P<0.05 as compared to the control in the t-test.

Where [3] appears, read: chemically-modified SNORA18 siRNA, 1 to 3 equivalents.
Setting [4] is: chemically-modified WASF2 siRNA, 1 to 3 equivalents.
The mark [5] stands for this setting: compared to Dab8, 1 to 3 equivalents.
Setting [6] is: chemically-modified NUP85 siRNA (SEQ ID NOs: 23 and 24) with 2 equivalents of peptide.
[7] abbreviates: chemically-modified SNORA18 siRNA (SEQ ID NOs: 21 and 22) with 2 equivalents of peptide.
Setting [8] is: chemically-modified SNORA22 siRNA (SEQ ID NOs: 27 and 28) with 2 equivalents of peptide.
Setting [9] is: chemically-modified WASF2 siRNA (SEQ ID NOs: 25 and 26) with 2 equivalents of peptide.

With `NCC[C@H](NC(=O)[C@H](CCN)NC(=O)[C@H](CCN)NC(=O)[C@H](CCN)NC(=O)[C@H](CCN)NC(=O)[C@H](CCN)NC(=O)[C@H](CCN)NC(=O)[C@H](CCN)NC(=O)CNC(=O)CNC(=O)CNC(=O)CC[C@H](NC(=O)c1ccc(NCc2cnc3nc(N)[nH]c(=O)c3n2)cc1)C(=O)O)C(N)=O` [Fol-Dab8A] ({Pteroyl-γGlu}-GGG[Dab][Dab][Dab][Dab][Dab][Dab][Dab][Dab]-NH2), the “delivery of SNORA18 siRNA to pancreatic cancer tissue” value is on record as “high concentration” in test [1] (1 equivalent), “high concentration” in test [1] (3 equivalents) and “enhanced” in test [1] (setting [3]). Also, the “delivery of SNORA22 siRNA to pancreatic cancer tissue” value in test [1] (3 equivalents) is given as “high concentration”; in test [1] (setting [5]), “enhanced”. Further, the “delivery of WASF2 siRNA to pancreatic cancer tissue” value in test [1] (setting [4]) is “enhanced”. The “incorporation efficiency of siRNA” value in test [2] (3 equivalents) is recorded as “highest incorporation efficiency”. Moreover, the “incorporation efficiency of siRNA compared with Dab8” value in test [2] is on record as “higher than Dab8”. The “invasion of S2-013 cells” value with S2-013 cells (setting [6]), in the test on S2-013 cells (setting [7]), in the test with S2-013 cells (setting [8]) and with S2-013 cells (setting [9]) was “significantly suppressed” throughout.

As to `NCC[C@H](NC(=O)[C@H](CCN)NC(=O)[C@H](CCN)NC(=O)[C@H](CCN)NC(=O)[C@H](CCN)NC(=O)[C@H](CCN)NC(=O)[C@H](CCN)NC(=O)[C@H](CCN)NC(=O)CNC(=O)CNC(=O)CNC(=O)[C@H](CCC(=O)O)NC(=O)c1ccc(NCc2cnc3nc(N)[nH]c(=O)c3n2)cc1)C(N)=O` [Fol-Dab8B] (Pteroyl-EGGG[Dab][Dab][Dab][Dab][Dab][Dab][Dab][Dab]-NH2), the figures for the “delivery of WASF2 siRNA to pancreatic cancer tissue” value in test [1] (1 equivalent), in test [1] (3 equivalents) and in test [1] (setting [4]) were “high concentration”, “high concentration” and “enhanced”, respectively. For the same compound, the “delivery of SNORA22 siRNA to pancreatic cancer tissue” value in test [1] (2 equivalents) was “high concentration”; in test [1] (setting [5]) it was “enhanced”. Besides, in test [1] (setting [3]), the “delivery of SNORA18 siRNA to pancreatic cancer tissue” value is “enhanced”. Also, the “incorporation efficiency of siRNA” value in test [2] (1 equivalent) is recorded as “highest incorporation efficiency”. Further, the “incorporation efficiency of siRNA compared with Dab8” value in test [2] was “higher than Dab8”. For the same compound, the “invasion of S2-013 cells” value in the test on S2-013 cells (setting [6]), with S2-013 cells (setting [7]), with S2-013 cells (setting [8]) and with S2-013 cells (setting [9]) was “significantly suppressed” in each case.
